Results as given in patent US7781591B2, “Substituted 3-cyanopyridines as protein kinase inhibitors” (Wyeth LLC, priority 2006, dated 2010).

What follows are molecules tested against T1, human PKCθ full length enzyme (Homo sapiens, UniProt Q04759) (assay: PKCθ IMAP assay (fluorescence polarization)). Details: human PKCθ full length enzyme, IMAP; average value; read-out: IC50 PKCθ IMAP.
T1 construct: human PKCθ full length enzyme (Panvera Cat# P2996); purchased Panvera P2996
T1 sequence (Q04759 whole entry): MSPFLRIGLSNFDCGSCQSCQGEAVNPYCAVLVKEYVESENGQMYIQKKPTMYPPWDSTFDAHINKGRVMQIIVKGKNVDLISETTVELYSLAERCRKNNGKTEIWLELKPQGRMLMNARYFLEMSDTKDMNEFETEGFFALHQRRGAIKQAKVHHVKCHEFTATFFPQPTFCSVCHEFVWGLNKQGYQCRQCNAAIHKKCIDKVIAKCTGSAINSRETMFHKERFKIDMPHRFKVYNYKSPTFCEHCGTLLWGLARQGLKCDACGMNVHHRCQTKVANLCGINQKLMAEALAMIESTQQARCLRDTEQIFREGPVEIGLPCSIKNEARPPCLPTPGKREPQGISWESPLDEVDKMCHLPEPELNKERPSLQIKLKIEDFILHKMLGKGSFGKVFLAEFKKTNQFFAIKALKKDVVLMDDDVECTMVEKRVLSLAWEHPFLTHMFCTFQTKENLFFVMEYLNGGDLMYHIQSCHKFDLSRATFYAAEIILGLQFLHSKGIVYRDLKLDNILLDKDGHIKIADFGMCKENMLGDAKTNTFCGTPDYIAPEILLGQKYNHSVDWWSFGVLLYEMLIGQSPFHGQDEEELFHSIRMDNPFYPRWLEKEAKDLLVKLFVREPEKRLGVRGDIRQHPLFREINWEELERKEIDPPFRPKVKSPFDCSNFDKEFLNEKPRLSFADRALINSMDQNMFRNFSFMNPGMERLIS
Format: biochemical
Cc1c(Nc2c(C#N)cncc2-c2cccc(Cl)c2Cl)ccc2[nH]ccc12 [Compound 380, 5-(2,3-dichlorophenyl)-4-[(4-methyl-1H-indol-5-yl)amino]nicotinonitrile] showed an IC50 of 50 nM.
Cc1c(Nc2c(C#N)cncc2-c2ccc(NC(=O)N3CCOCC3)cc2)ccc2[nH]ccc12 [Compound 569, N-(4-{5-cyano-4-[(4-methyl-1H-indol-5-yl)amino]pyridin-3-yl}phenyl)morpholine-4-carboxamide] showed an IC50 of 59 nM.
Cc1c(Nc2c(C#N)cncc2-c2ccc(CN3CCN(C(C)C)CC3)o2)ccc2[nH]ccc12 [Compound 437, 5-{5-[(4-isopropylpiperazin-1-yl)methyl]-2-furyl}-4-[(4-methyl-1H-indol-5-yl)amino]nicotinonitrile] gave an IC50 of 2 nM.
Cc1c(Nc2c(C#N)cncc2-c2cc3ccccc3s2)ccc2[nH]ccc12 [Compound 514, 5-(1-benzothien-2-yl)-4-[(4-methyl-1H-indol-5-yl)amino]nicotinonitrile] was tested, and the IC50 was 23 nM.
In the case of Cc1c(Nc2c(C#N)cncc2-c2ccc(CN3CCOCC3)cc2)ccc2[nH]ccc12 [Compound 451, 4-[(4-methyl-1H-indol-5-yl)amino]-5-[4-(morpholin-4-ylmethyl)phenyl]nicotinonitrile], the IC50 is reported as 9 nM.
Cc1c(Nc2c(C#N)cncc2-c2cnc(N3CCCC3)nc2)ccc2[nH]ccc12 [Compound 512, 4-[(4-methyl-1H-indol-5-yl)amino]-5-(2-pyrrolidin-1-ylpyrimidin-5-yl)nicotinonitrile] showed an IC50 of 215 nM.
For N#Cc1cncc(-c2cc3cc(CO)ccc3s2)c1Nc1cccc2[nH]ccc12 [Compound 285, 5-[5-(hydroxymethyl)-1-benzothien-2-yl]-4-(1H-indol-4-ylamino)nicotinonitrile], the IC50 was 4 nM.
Work on COc1cc(-c2cncc(C#N)c2Nc2ccc3[nH]ccc3c2C)ccc1OCCN1CCN(C)CC1 [Compound 377, 5-{3-methoxy-4-[2-(4-methylpiperazin-1-yl)ethoxy]phenyl}-4-[(4-methyl-1H-indol-5-yl)amino]nicotinonitrile] yielded an IC50 of 10 nM.
Molecule CN1CCN(CCOc2ccc(-c3cncc(C#N)c3Nc3ccc4[nH]ccc4c3)cc2)CC1 [Compound 520, 4-(1H-indol-5-ylamino)-5-{4-[2-(4-methylpiperazin-1-yl)ethoxy]phenyl}nicotinonitrile] has an IC50 of 73 nM.
With COc1ccc(-c2cncc(C#N)c2Nc2ccc3[nH]ccc3c2)cc1-c1ccccc1Cl [Compound 193, 5-(2′-chloro-6-methoxybiphenyl-3-yl)-4-(1H-indol-5-ylamino)nicotinonitrile] the IC50 was 250 nM.
CCN(CC)Cc1ccc(-c2cncc(C#N)c2Nc2ccc3[nH]ccc3c2C)o1 [Compound 406, 5-{5-[(diethylamino)methyl]-2-furyl}-4-[(4-methyl-1H-indol-5-yl)amino]nicotinonitrile] gave an IC50 of 42 nM.
For Cc1c(Nc2c(C#N)cncc2-c2ccc(OCCNCCCO)cc2)ccc2[nH]ccc12 [Compound 415, 5-(4-{2-[(3-hydroxypropyl)amino]ethoxy}phenyl)-4-[(4-methyl-1H-indol-5-yl)amino]nicotinonitrile], the IC50 was 5 nM.
Cc1c(Nc2c(C#N)cncc2-c2cc3cc(CNCCN4CCCC4)ccc3o2)ccc2[nH]ccc12 [Compound 390, 4-[(4-methyl-1H-indol-5-yl)amino]-5-(5-{[(2-pyrrolidin-1-ylethyl)amino]methyl}-1-benzofuran-2-yl)nicotinonitrile] showed an IC50 of 1 nM.
For COc1ccc(-c2cncc(C#N)c2Nc2cccc3[nH]ccc23)cc1OCCNCCc1c[nH]cn1 [Compound 339, 5-[3-(2-{[2-(1H-imidazol-4-yl)ethyl]amino}ethoxy)-4-methoxyphenyl]-4-(1H-indol-4-ylamino)nicotinonitrile], the IC50 was 10 nM.
Work on N#Cc1cncc(-c2cccc(-c3ccc(C(=O)NCCCO)cc3)c2)c1Nc1ccc2[nH]ccc2c1 [Compound 210, 3′-[5-cyano-4-(1H-indol-5-ylamino)pyridin-3-yl]-N-(3-hydroxypropyl)biphenyl-4-carboxamide] yielded an IC50 of 2580 nM.
Cc1c(Nc2c(C#N)cncc2-c2ccc(Br)cc2F)ccc2[nH]ccc12 [Compound 381, 5-(4-bromo-2-fluorophenyl)-4-[(4-methyl-1H-indol-5-yl)amino]nicotinonitrile] gave an IC50 of 20 nM.
Cc1c(Nc2c(C#N)cncc2-c2cccc3ncccc23)ccc2[nH]ccc12 [Compound 592, 4-(4-methyl-1H-indol-5-ylamino)-5-(quinolin-5-yl)nicotinonitrile] was tested, and the IC50 was 6.9 nM.
Work on N#Cc1cncc(-c2ccsc2)c1Nc1ccc2[nH]ccc2c1 [Compound 258, 4-(1H-indol-5-ylamino)-5-(3-thienyl)nicotinonitrile] yielded an IC50 of 100 nM.
In the case of Cc1c(Nc2c(C#N)cncc2-c2ccc(N)cc2)ccc2[nH]ccc12 [Compound 571, 5-(4-aminophenyl)-4-[(4-methyl-1H-indol-5-yl)amino]nicotinonitrile], the IC50 is reported as 16 nM.
Molecule Cc1c(Nc2c(C#N)cncc2-c2csc(C=O)c2)ccc2[nH]ccc12 [Compound 516, 5-(5-formyl-3-thienyl)-4-[(4-methyl-1H-indol-5-yl)amino]nicotinonitrile] has an IC50 of 5 nM.
COc1ccc(-c2cncc(C#N)c2Nc2ccc3c(c2)OCO3)cc1OC [Compound 111, 4-(1,3-benzodioxol-5-ylamino)-5-(3,4-dimethoxyphenyl)nicotinonitrile] gave an IC50 of 580 nM.
Work on Cc1c(Nc2c(C#N)cncc2-c2ccc3ccccc3c2)ccc2[nH]ccc12 [Compound 582, 4-[(4-methyl-1H-indol-5-yl)amino]-5-(2-naphthyl)nicotinonitrile] yielded an IC50 of 92 nM.
COc1ccc(-c2cncc(C#N)c2Nc2ccc3ccccc3c2)cc1OC [Compound 112, 5-(3,4-dimethoxyphenyl)-4-(2-naphthylamino)nicotinonitrile] showed an IC50 of 1130 nM.
In the case of CS(=O)(=O)c1cccc(-c2cncc(C#N)c2Nc2cccc3[nH]ccc23)c1 [Compound 255, 4-(1H-indol-4-ylamino)-5-[3-(methylsulfonyl)phenyl]nicotinonitrile], the IC50 is reported as 80 nM.
Cc1c(Nc2c(C#N)cncc2-c2cc3cc(CN4CCNCC4)ccc3o2)cc(Cl)c2[nH]ccc12 [Compound 547, 4-[(7-chloro-4-methyl-1H-indol-5-yl)amino]-5-[5-(piperazin-1-ylmethyl)-1-benzofuran-2-yl]nicotinonitrile] showed an IC50 of 4 nM.
N#Cc1cncc(-c2cccc(-c3ccc(C(=O)NC4CC4)cc3)c2)c1Nc1ccc2[nH]ccc2c1 [Compound 201, 3′-[5-cyano-4-(1H-indol-5-ylamino)pyridin-3-yl]-N-cyclopropylbiphenyl-4-carboxamide] gave an IC50 of 300 nM.
For Cc1c(Nc2c(C#N)cncc2-c2cc3cc(CNCc4cccnc4)ccc3o2)ccc2[nH]ccc12 [Compound 399, 4-[(4-methyl-1H-indol-5-yl)amino]-5-(5-{[(pyridin-3-ylmethyl)amino]methyl}-1-benzofuran-2-yl)nicotinonitrile], the IC50 was 2 nM.
Molecule COc1ccc(-c2cncc(C#N)c2Nc2ccc3[nH]ccc3c2)cc1OCCCl [Compound 178, 5-[3-(2-chloroethoxy)-4-methoxyphenyl]-4-(1H-indol-5-ylamino)nicotinonitrile] has an IC50 of 110 nM.
COCCNC(=O)c1ccc(-c2cccc(-c3cncc(C#N)c3Nc3ccc4[nH]ccc4c3)c2)cc1 [Compound 200, 3′-[5-cyano-4-(1H-indol-5-ylamino)pyridin-3-yl]-N-(2-methoxyethyl)biphenyl-4-carboxamide] was tested, and the IC50 was 190 nM.
Cc1c(Nc2c(C#N)cncc2-c2ccc(OCCN(C)C)cc2)cc(Cl)c2[nH]ccc12 [Compound 534, 4-[(7-chloro-4-methyl-1H-indol-5-yl)amino]-5-{4-[2-(dimethylamino)ethoxy]phenyl}nicotinonitrile] was tested, and the IC50 was 17 nM.
Molecule CN1CCN(CCOc2ccc(-c3cncc(C#N)c3Nc3cccc4[nH]ccc34)cc2)CC1 [Compound 335, 4-(1H-indol-4-ylamino)-5-{4-[2-(4-methylpiperazin-1-yl)ethoxy]phenyl}nicotinonitrile] has an IC50 of 10 nM.
In the case of COc1ccc(-c2cncc(C#N)c2Nc2ccc(C)c3cc[nH]c23)cc1OC [Compound 530, 5-(3,4-dimethoxyphenyl)-4-[(4-methyl-1H-indol-7-yl)amino]nicotinonitrile], the IC50 is reported as 179 nM.
N#Cc1cncc(-c2cccc(C(F)(F)F)c2)c1Nc1cccc2[nH]ccc12 [Compound 310, 4-(1H-indol-4-ylamino)-5-[3-(trifluoromethyl)phenyl]nicotinonitrile] gave an IC50 of 20 nM.
Molecule COc1ccc(-c2cncc(C#N)c2Nc2ccc3[nH]c(C)cc3c2C)cc1OC [Compound 549, 5-(3,4-dimethoxyphenyl)-4-[(2,4-dimethyl-1H-indol-5-yl)amino]nicotinonitrile] has an IC50 of 10 nM.
With CN(C)c1ccc(-c2cncc(C#N)c2Nc2cc(O)[nH]n2)cc1 [Compound 294, 5-[4-(dimethylamino)phenyl]-4-[(5-hydroxy-1H-pyrazol-3-yl)amino]nicotinonitrile] the IC50 was 33400 nM.
COc1ccc(-c2cncc(C#N)c2Nc2cccc3[nH]c(C)cc23)cc1OC [Compound 349, 5-(3,4-dimethoxyphenyl)-4-[(2-methyl-1H-indol-4-yl)amino]nicotinonitrile] showed an IC50 of 130 nM.
N#Cc1cncc(-c2cc3ccccc3o2)c1Nc1ccc2[nH]ncc2c1 [Compound 373, 5-(1-benzofuran-2-yl)-4-(1H-indazol-5-ylamino)nicotinonitrile] gave an IC50 of 1000 nM.
Work on Cc1c(Nc2c(C#N)cncc2-c2cccc(Br)c2)ccc2[nH]ccc12 [Compound 298, 5-(3-bromophenyl)-4-[(4-methyl-1H-indol-5-yl)amino]nicotinonitrile] yielded an IC50 of 4 nM.
COc1ccc(-c2cncc(C#N)c2Nc2ccc3[nH]ccc3c2C)cc1OC [Compound 218, 5-(3,4-dimethoxyphenyl)-4-[(4-methyl-1H-indol-5-yl)amino]nicotinonitrile] gave an IC50 of 6 nM.
Cc1c(Nc2c(C#N)cncc2-c2cc3cc(CO)ccc3o2)ccc2[nH]ccc12 [Compound 481, 5-[5-(hydroxymethyl)-1-benzofuran-2-yl]-4-[(4-methyl-1H-indol-5-yl)amino]nicotinonitrile] was tested, and the IC50 was 0.21 nM.
CN(C)CCCOc1ccc(-c2cncc(C#N)c2Nc2cccc3[nH]ccc23)cn1 [Compound 356, 6′-[3-(dimethylamino)propoxy]-4-(1H-indol-4-ylamino)-3,3′-bipyridine-5-carbonitrile] gave an IC50 of 40 nM.
